Measurements from PubChem BioAssay AID1259407 (Chemical Carcinogenesis Research Information System (CCRIS), 2018).
Entries after “also recorded” stand apart in the source; their conditions may differ. Calls of active or inactive are those of the source. How the calls were made is not given here.

System: CCRIS mutagenicity, Ames/micronucleus/aberration tests
Assay: CCRIS mutagenicity studies
[1] = Test System: AMES SALMONELLA TYPHIMURIUM, Strain/Indicator: TA98, Metabolic Activation: NONE, Method: PREINCUBATION
[2] = Test System: AMES SALMONELLA TYPHIMURIUM, Strain/Indicator: TA100, Metabolic Activation: NONE, Method: PREINCUBATION
[3] = Test System: AMES SALMONELLA TYPHIMURIUM, Strain/Indicator: TA100, Metabolic Activation: RAT, LIVER, S-9, PCB, Method: PREINCUBATION
[4] = Test System: AMES SALMONELLA TYPHIMURIUM, Strain/Indicator: TA100, Metabolic Activation: NONE, Method: STANDARD PLATE
[5] = Test System: AMES SALMONELLA TYPHIMURIUM, Strain/Indicator: TA100, Metabolic Activation: RAT, LIVER, S-9, AROCLOR 1254, Method: STANDARD PLATE

For `O=c1n(CC2CO2)c(=O)n(CC2CO2)c(=O)n1CC1CO1` (stereo not given), the mutagenic call (End Point: IN VITRO CHROMOSOMAL ABERRATIONS, Test System: CHINESE HAMSTER LUNG CELLS (CHL), Metabolic Activation: NONE) was “active; positive (structural changes)”, the mutagenic call (End Point: IN VITRO CHROMOSOMAL ABERRATIONS, Test System: CHINESE HAMSTER LUNG CELLS (CHL), Metabolic Activation: RAT, LIVER, S-9, KC-400) was “inactive; negative” and the mutagenic call (End Point: IN VITRO CHROMOSOMAL ABERRATIONS, Test System: CHINESE HAMSTER OVARY CELLS (CHO), Metabolic Activation: NONE) was “active; positive (structural changes)”. For the same molecule, the mutagenic call (End Point: IN VITRO CHROMOSOMAL ABERRATIONS, Test System: CHINESE HAMSTER OVARY CELLS (CHO), Metabolic Activation: RAT, LIVER, S-9, AROCLOR 1254) was “active; positive (structural changes)”, the mutagenic call (End Point: IN VITRO CHROMOSOMAL ABERRATIONS, Test System: CHL CELLS, Metabolic Activation: RAT, LIVER, S-9, SODIUM PHENOBARBITAL AND 5,6-BENZOFLAVONE) was “active; positive (structural changes)” and the mutagenic call (End Point: IN VITRO CHROMOSOMAL ABERRATIONS, Test System: CHL CELLS, Metabolic Activation: S-9) was “active; positive; interlaboratory comparison between 2 labs; all reported positive resul; also recorded: active; positive (structural changes); interlaboratory comparison between 2 labs; both r”. For the same molecule, the mutagenic call (End Point: IN VITRO CHROMOSOMAL ABERRATIONS, Test System: CHO CELLS, Metabolic Activation: S-9) was “active; positive (structural changes); interlaboratory comparison between 2 labs; both r; also recorded: active; positive; interlaboratory comparison among 3 labs; all reported positive results”, the mutagenic call (End Point: IN VITRO CHROMOSOMAL ABERRATIONS, Test System: CHO-LB CELLS, Metabolic Activation: NONE) was “active; positive” and the mutagenic call (End Point: IN VITRO CHROMOSOMAL ABERRATIONS, Test System: CHO-LB CELLS, Metabolic Activation: RAT, LIVER, S-9, AROCLOR 1254) was “active; positive”. The mutagenic call (Test System: AMES SALMONELLA TYPHIMURIUM, Strain/Indicator: TA98, Metabolic Activation: HAMSTER, LIVER, S-9, AROCLOR 1254 (30%), Method: PREINCUBATION) was “active; positive”, the mutagenic call [1] was “active; positive” and the mutagenic call (Test System: AMES SALMONELLA TYPHIMURIUM, Strain/Indicator: TA98, Metabolic Activation: RAT LIVER S-9, PHENOBARBITAL AND BETA-NAPHTHOFLAVONE, Method: PREINCUBATION) was “active; positive”. For the same molecule, the mutagenic call (Test System: AMES SALMONELLA TYPHIMURIUM, Strain/Indicator: TA98, Metabolic Activation: RAT, LIVER, S-9, AROCLOR 1254 (30%), Method: PREINCUBATION) was “active; positive”, the mutagenic call (Test System: AMES SALMONELLA TYPHIMURIUM, Strain/Indicator: TA100, Metabolic Activation: HAMSTER, LIVER, S-9, AROCLOR 1254 (30%), Method: PREINCUBATION) was “active; positive” and the mutagenic call [2] was “active; positive”. For the same molecule, the mutagenic call (Test System: AMES SALMONELLA TYPHIMURIUM, Strain/Indicator: TA100, Metabolic Activation: RAT LIVER S-9, PHENOBARBITAL AND BETA-NAPHTHOFLAVONE, Method: PREINCUBATION) was “active; positive”, the mutagenic call (Test System: AMES SALMONELLA TYPHIMURIUM, Strain/Indicator: TA100, Metabolic Activation: RAT, LIVER, S-9, AROCLOR 1254 (30%), Method: PREINCUBATION) was “active; positive” and the mutagenic call (Test System: AMES SALMONELLA TYPHIMURIUM, Strain/Indicator: TA1535, Metabolic Activation: NONE, Method: PREINCUBATION) was “active; positive”. For the same molecule, the mutagenic call (Test System: AMES SALMONELLA TYPHIMURIUM, Strain/Indicator: TA1535, Metabolic Activation: RAT LIVER S-9, PHENOBARBITAL AND BETA-NAPHTHOFLAVONE, Method: PREINCUBATION) was “active; positive”, the mutagenic call (Test System: AMES SALMONELLA TYPHIMURIUM, Strain/Indicator: TA1537, Metabolic Activation: NONE, Method: PREINCUBATION) was “inactive; negative” and the mutagenic call (Test System: AMES SALMONELLA TYPHIMURIUM, Strain/Indicator: TA1537, Metabolic Activation: RAT LIVER S-9, PHENOBARBITAL AND BETA-NAPHTHOFLAVONE, Method: PREINCUBATION) was “inactive; negative”. For the same molecule, the mutagenic call (Test System: E.COLI, Strain/Indicator: WP2UVRA, Metabolic Activation: NONE, Method: PREINCUBATION) was “inactive; negative” and the mutagenic call (Test System: E.COLI, Strain/Indicator: WP2UVRA, Metabolic Activation: RAT LIVER S-9, PHENOBARBITAL AND BETA-NAPHTHOFLAVONE, Method: PREINCUBATION) was “inactive; negative”.

With `[N-]=[N+]=NC[C@H](CO)Cc1ccccc1` the mutagenic call [3] was “active; positive”.

With `O=C(O)Nc1ccc(-c2ccccc2)cc1` the mutagenic call [1] was “active; positive”, the mutagenic call (Test System: AMES SALMONELLA TYPHIMURIUM, Strain/Indicator: TA98, Metabolic Activation: RAT, LIVER, CYTOSOL, Method: PREINCUBATION) was “active; positive” and the mutagenic call (Test System: AMES SALMONELLA TYPHIMURIUM, Strain/Indicator: TA98, Metabolic Activation: RAT, LIVER, MICROSOMES, Method: PREINCUBATION) was “active; positive”.

`COC(=O)N[C@H]1[C@H](O[C@H]2[C@H](O)[C@@H](N)[C@H](O[C@H]3[C@H](O)[C@@H](N)[C@H](O)O[C@@H]3CO)O[C@@H]2CO)O[C@H](CO)[C@@H](O[C@@H]2O[C@H](CO)[C@@H](O[C@@H]3O[C@H](CO)[C@@H](O[C@@H]4O[C@H](CO)[C@@H](O[C@@H]5O[C@H](CO)[C@@H](O[C@@H]6O[C@H](CO)[C@@H](O[C@@H]7O[C@H](CO)[C@@H](O)[C@H](O)[C@H]7N)[C@H](O)[C@H]6N)[C@H](O)[C@H]5N)[C@H](O)[C@H]4N)[C@H](O)[C@H]3N)[C@H](O)[C@H]2N)[C@@H]1O` was tested, and the mutagenic call (End Point: IN VIVO CHROMOSOMAL ABERRATIONS, Test System: BONE MARROW CELLS (LYMPHOCYTES), Species: MOUSE, Strain/Sex: ICR/MALE, Route: DRINKING WATER) was “inactive; negative”, the mutagenic call (End Point: IN VIVO CHROMOSOMAL ABERRATIONS, Test System: BONE MARROW, Species: MOUSE, Strain/Sex: ICR/MALE, Route: DRINKING WATER) was “inactive; negative” and the mutagenic call (End Point: IN VIVO CHROMOSOMAL ABERRATIONS, Test System: BONE MARROW, Species: MOUSE, Strain/Sex: ICR/PARENT, F1, F2, F3 GENERATIONS, Strain/Sex: ICR/PARENT, F1, F2, F3 GENERATIONS, Route: DRINKING WATER) was “inactive; negative in all generations”. For the same molecule, the mutagenic call (End Point: IN VIVO MICRONUCLEUS, Test System: BONE MARROW POLYCHROMATIC ERYTHROCYTES, Species: MOUSE, Strain/Sex: ICR/MALE, Route: DRINKING WATER) was “inactive; negative”.

For `C1CN2CCN1CC2`, the mutagenic call [1] was “inactive; negative”, the mutagenic call (Test System: AMES SALMONELLA TYPHIMURIUM, Strain/Indicator: TA98, Metabolic Activation: RAT, LIVER, S-9, PCB, Method: PREINCUBATION) was “inactive; negative” and the mutagenic call [2] was “inactive; negative”. The mutagenic call [3] was “inactive; negative”.

`O=[Si]=O` was tested, and the mutagenic call (Test System: AMES SALMONELLA TYPHIMURIUM, Strain/Indicator: TA98, Metabolic Activation: NONE, Method: STANDARD PLATE) was “inactive; negative”, the mutagenic call (Test System: AMES SALMONELLA TYPHIMURIUM, Strain/Indicator: TA98, Metabolic Activation: RAT, LIVER, S-9, AROCLOR 1254, Method: STANDARD PLATE) was “inactive; negative” and the mutagenic call [4] was “inactive; negative”. The mutagenic call [5] was “inactive; negative”, the mutagenic call (Test System: AMES SALMONELLA TYPHIMURIUM, Strain/Indicator: TA1535, Metabolic Activation: NONE, Method: STANDARD PLATE) was “inactive; negative” and the mutagenic call (Test System: AMES SALMONELLA TYPHIMURIUM, Strain/Indicator: TA1535, Metabolic Activation: RAT, LIVER, S-9, AROCLOR 1254, Method: STANDARD PLATE) was “inactive; negative”. The mutagenic call (Test System: AMES SALMONELLA TYPHIMURIUM, Strain/Indicator: TA1537, Metabolic Activation: NONE, Method: STANDARD PLATE) was “inactive; negative”, the mutagenic call (Test System: AMES SALMONELLA TYPHIMURIUM, Strain/Indicator: TA1537, Metabolic Activation: RAT, LIVER, S-9, AROCLOR 1254, Method: STANDARD PLATE) was “inactive; negative” and the mutagenic call (Test System: AMES SALMONELLA TYPHIMURIUM, Strain/Indicator: TA1538, Metabolic Activation: NONE, Method: STANDARD PLATE) was “inactive; negative”. The mutagenic call (Test System: AMES SALMONELLA TYPHIMURIUM, Strain/Indicator: TA1538, Metabolic Activation: RAT, LIVER, S-9, AROCLOR 1254, Method: STANDARD PLATE) was “inactive; negative”, the mutagenic call (Test System: E. COLI, Strain/Indicator: WP2, Metabolic Activation: NONE, Method: STANDARD PLATE) was “inactive; negative” and the mutagenic call (Test System: E. COLI, Strain/Indicator: WP2, Metabolic Activation: RAT, LIVER, S-9, AROCLOR 1254, Method: STANDARD PLATE) was “inactive; negative”. For the same molecule, the mutagenic call (Test System: HUMAN-HAMSTER HYBRID AL CELLS, Strain/Indicator: AL CELLS (HPRT), Metabolic Activation: NONE, Method: PREINCUBATION) was “active; positive”.

`C[N+]1(CCNP(=S)(NCC[N+]2(C)Cc3c(ccc4c3OCO4)[C@@H]3[C@H]2c2cc4c(cc2C[C@@H]3O)OCO4)NCC[N+]2(C)Cc3c(ccc4c3OCO4)[C@@H]3[C@H]2c2cc4c(cc2C[C@@H]3O)OCO4)Cc2c(ccc3c2OCO3)[C@@H]2[C@H]1c1cc3c(cc1C[C@@H]2O)OCO3` (stereo not given in full) was tested, and the mutagenic call [4] was “inactive; negative” and the mutagenic call [5] was “inactive; negative”.
